Measured values: patent US11331369B2, “Endoparasitic depsipeptides” (Zoetis Services LLC, priority 2017, dated 2022)

Legend:
Format in all cases: cell-based
[1] = test system: microfilariae of Dirofilaria immitis; assay: Dirofilaria immitis, Microfilaria (DiMF) In vitro Assay; settings: 72 h, read-out: DiMF Minimum Effective Dose (MED), approximately 72 hours incubation, microfilariae assessed for survival or paralysis
[2] = test system: 4th stage larvae (L4) of Dirofilaria immitis; assay: Dirofilaria immitis, L4 Stage (DiL4) In Vitro Assay; settings: Dirofilaria immitis, 72 h, read-out: DiL4 Minimum Effective Dose (MED), approximately 72 hours incubation; L4 larvae assessed for survival or paralysis
[3] = test system: third stage larvae of Haemonchus contortus; assay: Haemonchus contortus L3 (HcL3) Assay; settings: 96 h, read-out: HcL3 Minimum Effective Dose (MED)

Structure (SMILES)	minimal effective concentration [1] [µM]	minimal effective concentration [2] [µM]	minimal effective concentration [3] [µM]
CC(C)C[C@H]1C(=O)O[C@H](Cc2ccc(Cn3nccc3C(C)C)cc2)C(=O)N(C)[C@@H](CC(C)C)C(=O)O[C@H](C)C(=O)N(C)[C@@H](CC(C)C)C(=O)O[C@H](Cc2ccccc2)C(=O)N(C)[C@@H](CC(C)C)C(=O)O[C@H](C)C(=O)N1C [Example 2-69, (3S,6R,9S,12R,15S,18R,21S,24R)-6-benzyl-3,9,15,21-tetraisobutyl-18-(4-((5-isopropyl-1H-pyrazol-1-yl)methyl)benzyl)-4,10,12,16,22,24-hexamethyl-1,7,13,19-tetraoxa-4,10,16,22-tetraazacyclotetracosan-2,5,8,11,14,17,20,23-octaone]	0.001 to 0.01	0.0001 to 0.001	1 to 10
COC(C)(C)c1ccnn1Cc1ccc(C[C@H]2OC(=O)[C@H](CC(C)C)N(C)C(=O)[C@@H](C)OC(=O)[C@H](CC(C)C)N(C)C(=O)[C@@H](Cc3ccc(Cn4nccc4C(C)(C)OC)cc3)OC(=O)[C@H](CC(C)C)N(C)C(=O)[C@@H](C)OC(=O)[C@H](CC(C)C)N(C)C2=O)cc1 [Example 1b-220, (3S,6R,9S,12R,15S,18R,21S,24R)-3,9,15,21-tetraisobutyl-6,18-bis(4-((5-(2-methoxypropan-2-yl)-1H-pyrazol-1-yl)methyl)benzyl)-4,10,12,16,22,24-hexamethyl-1,7,13,19-tetraoxa-4,10,16,22-tetraazacyclotetracosan-2,5,8,11,14,17,20,23-octaone]	0.001 to 0.01	0.001 to 0.01	10 to 100
CCC#Cc1cnn(Cc2ccc(C[C@H]3OC(=O)[C@H](CC(C)C)N(C)C(=O)[C@@H](C)OC(=O)[C@H](CC(C)C)N(C)C(=O)[C@@H](Cc4ccc(Cn5cc(C#CCC)cn5)cc4)OC(=O)[C@H](CC(C)C)N(C)C(=O)[C@@H](C)OC(=O)[C@H](CC(C)C)N(C)C3=O)cc2)c1 [Example 1b-119, (3S,6R,9S,12R,15S,18R,21S,24R)-6,18-bis(4-((4-(but-1-yn-1-yl)-1H-pyrazol-1-yl)methyl)benzyl)-3,9,15,21-tetraisobutyl-4,10,12,16,22,24-hexamethyl-1,7,13,19-tetraoxa-4,10,16,22-tetraazacyclotetracosan-2,5,8,11,14,17,20,23-octaone]	0.001 to 0.01	≤ 0.0001	10 to 100
CC(C)C[C@H]1C(=O)O[C@H](Cc2ccc(Cn3nccc3C3(Cl)CC3)cc2)C(=O)N(C)[C@@H](CC(C)C)C(=O)O[C@H](C)C(=O)N(C)[C@@H](CC(C)C)C(=O)O[C@H](Cc2ccc(Cn3nccc3C3(Cl)CC3)cc2)C(=O)N(C)[C@@H](CC(C)C)C(=O)O[C@H](C)C(=O)N1C [Example 1b-217, (3S,6R,9S,12R,15S,18R,21S,24R)-6,18-bis(4-((5-(1-chlorocyclopropyl)-1H-pyrazol-1-yl)methyl)benzyl)-3,9,15,21-tetraisobutyl-4,10,12,16,22,24-hexamethyl-1,7,13,19-tetraoxa-4,10,16,22-tetraazacyclotetracosan-2,5,8,11,14,17,20,23-octaone]	0.01 to 0.1	0.0001 to 0.001	≤ 1
CC(C)C[C@H]1C(=O)O[C@H](Cc2ccc(Cn3nccc3C(C)(C)C)cc2)C(=O)N(C)[C@@H](CC(C)C)C(=O)O[C@H](C)C(=O)N(C)[C@@H](CC(C)C)C(=O)O[C@H](Cc2ccc(Cn3nccc3C(C)(C)C)cc2)C(=O)N(C)[C@@H](CC(C)C)C(=O)O[C@H](C)C(=O)N1C [Example 1b-127, (3S,6R,9S,12R,15S,18R,21S,24R)-6,18-bis(4-((5-(tert-butyl)-1H-pyrazol-1-yl)methyl)benzyl)-3,9,15,21-tetraisobutyl-4,10,12,16,22,24-hexamethyl-1,7,13,19-tetraoxa-4,10,16,22-tetraazacyclotetracosan-2,5,8,11,14,17,20,23-octaone]	0.01 to 0.1	0.001 to 0.01	1 to 10
CC(C)C[C@H]1C(=O)O[C@H](Cc2ccc(Cn3cc(I)cn3)cc2)C(=O)N(C)[C@@H](CC(C)C)C(=O)O[C@H](C)C(=O)N(C)[C@@H](CC(C)C)C(=O)O[C@H](Cc2ccc(Cn3cccn3)cc2)C(=O)N(C)[C@@H](CC(C)C)C(=O)O[C@H](C)C(=O)N1C [Example 1a-21, (3S,6R,9S,12R,15S,18R,21S,24R)-6-(4-((1H-pyrazol-1-yl)methyl)benzyl)-18-(4-((4-iodo-1H-pyrazol-1-yl)methyl)benzyl)-3,9,15,21-tetraisobutyl-4,10,12,16,22,24-hexamethyl-1,7,13,19-tetraoxa-4,10,16,22-tetraazacyclotetracosan-2,5,8,11,14,17,20,23-octaone]	0.001 to 0.01	0.0001 to 0.001	1 to 10
CC(C)C[C@H]1C(=O)O[C@H](Cc2ccc(Cn3cc(C(F)(F)F)ccc3=O)cc2)C(=O)N(C)[C@@H](CC(C)C)C(=O)O[C@H](C)C(=O)N(C)[C@@H](CC(C)C)C(=O)O[C@H](Cc2ccc(Cn3cc(C(F)(F)F)ccc3=O)cc2)C(=O)N(C)[C@@H](CC(C)C)C(=O)O[C@H](C)C(=O)N1C [Example 9-22, (3S,6R,9S,12R,15S,18R,21S,24R)-3,9,15,21-tetraisobutyl-4,6,10,16,18,22-hexamethyl-12,24-bis(4-((2-oxo-5-(trifluoromethyl)pyridin-1 (2H)-yl)methyl)benzyl)-1,7,13,19-tetraoxa-4,10,16,22-tetraazacyclotetracosan-2,5,8,11,14,17,20,23-octaone]	0.001 to 0.01	0.001 to 0.01	1 to 10
CC(C)C[C@H]1C(=O)O[C@H](Cc2ccc(Cn3ncnc3C3CCCC3)cc2)C(=O)N(C)[C@@H](CC(C)C)C(=O)O[C@H](C)C(=O)N(C)[C@@H](CC(C)C)C(=O)O[C@H](Cc2ccc(Cn3ncnc3C3CCCC3)cc2)C(=O)N(C)[C@@H](CC(C)C)C(=O)O[C@H](C)C(=O)N1C [Example 9-52, (3S,6R,9S,12R,15S,18R,21S,24R)-6,18-bis(4-((5-cyclopentyl-1H-1,2,4-triazol-1-yl)methyl)benzyl)-3,9,15,21-tetraisobutyl-4,10,12,16,22,24-hexamethyl-1,7,13,19-tetraoxa-4,10,16,22-tetraazacyclotetracosan-2,5,8,11,14,17,20,23-octaone]	0.001 to 0.01	0.001 to 0.01	1 to 10
CCC(C)c1ccnn1Cc1ccc(C[C@H]2OC(=O)[C@H](CC(C)C)N(C)C(=O)[C@@H](C)OC(=O)[C@H](CC(C)C)N(C)C(=O)[C@@H](Cc3ccc(Cn4nccc4C(C)CC)cc3)OC(=O)[C@H](CC(C)C)N(C)C(=O)[C@@H](C)OC(=O)[C@H](CC(C)C)N(C)C2=O)cc1 (stereo partly drawn) [Example 1b-210, (3S,6R,9S,12R,15S,18R,21S,24R)-6,18-bis(4-((5-(sec-butyl)-1H-pyrazol-1-yl)methyl)benzyl)-3,9,15,21-tetraisobutyl-4,10,12,16,22,24-hexamethyl-1,7,13,19-tetraoxa-4,10,16,22-tetraazacyclotetracosan-2,5,8,11,14,17,20,23-octaone]	0.01 to 0.1	0.0001 to 0.001	1 to 10
CCc1cc(C)nn1Cc1ccc(C[C@H]2OC(=O)[C@H](CC(C)C)N(C)C(=O)[C@@H](C)OC(=O)[C@H](CC(C)C)N(C)C(=O)[C@@H](Cc3ccc(Cn4nc(C)cc4CC)cc3)OC(=O)[C@H](CC(C)C)N(C)C(=O)[C@@H](C)OC(=O)[C@H](CC(C)C)N(C)C2=O)cc1 [Example 1b-187, (3S,6R,9S,12R,15S,18R,21S,24R)-6,18-bis(4-((5-ethyl-3-methyl-1H-pyrazol-1-yl)methyl)benzyl)-3,9,15,21-tetraisobutyl-4,10,12,16,22,24-hexamethyl-1,7,13,19-tetraoxa-4,10,16,22-tetraazacyclotetracosan-2,5,8,11,14,17,20,23-octaone]	0.01 to 0.1	0.001 to 0.01	1 to 10
CC(C)C[C@H]1C(=O)O[C@H](Cc2cccc(Cn3ccnc3Cl)c2)C(=O)N(C)[C@@H](CC(C)C)C(=O)O[C@H](C)C(=O)N(C)[C@@H](CC(C)C)C(=O)O[C@H](Cc2ccc(Cn3ccnc3Cl)cc2)C(=O)N(C)[C@@H](CC(C)C)C(=O)O[C@H](C)C(=O)N1C [Example 7-9, (3S,6R,9S,12R,15S,18R,21S,24R)-6-(3-((2-chloro-1H-imidazol-1-yl)methyl)benzyl)-18-(4-((2-chloro-1H-imidazol-1-yl)methyl)benzyl)-3,9,15,21-tetraisobutyl-4,10,12,16,22,24-hexamethyl-1,7,13,19-tetraoxa-4,10,16,22-tetraazacyclotetracosan-2,5,8,11,14,17,20,23-octaone]	0.001 to 0.01	0.0001 to 0.001	1 to 10
CC(C)C[C@H]1C(=O)O[C@H](Cc2ccc(Cn3ncnc3CC(C)(C)C)cc2)C(=O)N(C)[C@@H](CC(C)C)C(=O)O[C@H](C)C(=O)N(C)[C@@H](CC(C)C)C(=O)O[C@H](Cc2ccc(Cn3ncnc3CC(C)(C)C)cc2)C(=O)N(C)[C@@H](CC(C)C)C(=O)O[C@H](C)C(=O)N1C [Example 9-56, (3S,6R,9S,12R,15S,18R,21S,24R)-3,9,15,21-tetraisobutyl-4,6,10,16,18,22-hexamethyl-12,24-bis(4-((5-neopentyl-1H-1,2,4-triazol-1-yl)methyl)benzyl)-1,7,13,19-tetraoxa-4,10,16,22-tetraazacyclotetracosan-2,5,8,11,14,17,20,23-octaone]	0.001 to 0.01	0.001 to 0.01	1 to 10
